This is an account of results in patent US12421211B2, “Heterocyclic compounds” (Hoffmann-La Roche Inc., priority 2021, dated 2025).

Values after ≈ are worked out from the molar mass of the structure shown. Structures can show the parent of a compound that is named as a salt. Where two headings read alike, the source gives them in different places.

The test system of experiment [1] is Acinetobacter baumannii ATCC17961. Description: Antimicrobial susceptibility testing: 90% growth inhibitory concentration (IC90) determination. The format is cell-based. Particulars: Acinetobacter baumannii, ATCC17961, 16 h, read-out: ATCC 17961 IC90. Summed up: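 A. baumannii ATCC17961 at ~5×10^5 CFU/ml in Iso-Sensitest broth exposed to 10-point twofold dilutions (e.g. 50–0.097 μM final), 35±2° C. OD600 read every 20 minutes over 16h; IC50 and IC90 derived from inhibition during logarithmic growth.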

Experiment [2] deals with Acinetobacter baumannii ATCC17978. Put plainly: Minimal Inhibitory Concentration (MIC) assay. The experiment is classed as cell-based. Particulars: read-out: MIC AB. ATCC17978. The protocol:
Minimal Inhibitory Concentration Protocol (MIC) Assay:
Table 2 provides the in vitro potency of the compounds of present invention obtained against the strain Acinetobacter baumannii ATCC17978, which was assessed by an MIC (Minimal Inhibitory Concentration) assay as follows.
Test compounds were prepared from 10 mM DMSO stock solutions. The top dose was diluted from 10 mM to 2.5 mM by DMSO, followed by serial 2-fold 11 points dilutions in DMSO in a master plate (Greiner, Cat No: 651201). 2 μL compounds were transferred from the master plate into a new 96-well assay plate (Costar, 3599).
The growth medium […] Mueller Hinton Broth (CAMHIB) was prepared by adding 22 g powder (BD, 212322) in 1 L purified water, autoclaved, and supplemented with sterilized CaCl2 (20 mg per liter) and MgCl2 (10 mg per liter).
Vials of each of the test microorganisms were maintained frozen in the vapor phase of a liquid nitrogen freezer. Took out the bacterial strain ATCC 17978 from liquid nitrogen freezer, thawed it at room temperature, and diluted the bacterial in the CAMHB medium to achieve a final inoculum of 2×10^5 CFU/mL. 98 μL of the adjusted bacteria suspension was dispensed to the assay plate and pipetted 5 times.
Then the assay plates were incubated for 20 hours at 35±2° C. in ambient air with humidity. Following incubation, MIC […] value, the lowest concentration of drug that inhibits visible growth of the microorganism, was recorded by visual judgment of bacterial growth through magnification mirror of MIC reader, and the assay plates were photographed with Qcount system as image raw data. Meanwhile, the D600 of assay plates was recorded with SpectraMax Plus384 as GD raw data.

Where [3] appears, read: Acinetobacter baumannii, ATCC17978, 20 h.
The mark [4] stands for this setting: 90% growth inhibitory concentration, Acinetobacter baumannii ATCC17961, Iso-Sensitest broth, OD 600 nm over 16 h.
[5] abbreviates: Acinetobacter baumannii ATCC17978, CAMHB medium, 20 hours at 35±2° C., visual reading.

The IC90 is the point of the concentration-response curve where the effect stands at 90%. Usually MIC stands for the least concentration at which growth counts as inhibited.

Take `COCCn1cc(-c2ccc(-c3cnc(C(=O)Nc4ccc(C(=O)N5CCN(C(=O)C6CCNCC6O)CC5)c(C)c4)n3C)c(F)c2F)c(C)n1` (stereo not drawn) [Example D22, 5-[2,3-difluoro-4-[1-(2-methoxyethyl)-3-methyl-pyrazol-4-yl]phenyl]-N-[4-[4-(3-hydroxypiperidine-4-carbonyl)piperazine-1-carbonyl]-3-methyl-phenyl]-1-methyl-imidazole-2-carboxamide; formic acid]: the concentration for an effect of 90% (IC90) in experiment [1] is 199 nM. Further, the minimal inhibitory concentration (MIC) in experiment [2] (setting [3]) is 1.1 µM (≈ 0.775 µg/mL).

Regarding `COCCn1cc(-c2ccc(-c3cnc(C(=O)Nc4ccc(C(=O)N5CCN(C(=O)C6CC[N+](C)(C)CC6)CC5)c(Cl)c4)n3C)c(F)c2F)c(Cl)n1` [Example F30, N-[3-chloro-4-[4-(1,1-dimethylpiperidin-1-ium-4-carbonyl)piperazine-1-carbonyl]phenyl]-5-[4-[3-chloro-1-(2-methoxyethyl)pyrazol-4-yl]-2,3-difluoro-phenyl]-1-methyl-imidazole-2-carboxamide; formate], the concentration for an effect of 90% (IC90) in experiment [1] (setting [4]) amounted to 97 nM. Moreover, the minimum inhibitory concentration (MIC) in experiment [2] (setting [5]) is 1.19 µM.

Regarding `COCCn1cc(-c2ccc(-c3cnc(C(=O)Nc4ccc(C(=O)N5CCN(C(=O)C6CC[N+](C)(C)CC6)CC5)c(Cl)c4)n3C)c(F)c2F)c(-c2ccccc2)n1` [Example F49, N-[3-chloro-4-[4-(1,1-dimethylpiperidin-1-ium-4-carbonyl)piperazine-1-carbonyl]phenyl]-5-[2,3-difluoro-4-[1-(2-methoxyethyl)-3-phenyl-pyrazol-4-yl]phenyl]-1-methyl-imidazole-2-carboxamide; formate], the IC90 in experiment [1] (setting [4]) came to 1520 nM. Further, the MIC in experiment [2] (setting [5]) was found to be 2.5 µM.

With `Cc1nn(CC(=O)NC2CCC[N+](C)(C)C2)cc1-c1ccc(-c2cnc(C(=O)Nc3ccc(C(=O)N4CCN(C(=O)C5CC[N+](C)(C)CC5)CC4)c(Cl)c3)n2C)c(F)c1F` (stereo not drawn) [Example G24, N-[3-chloro-4-[4-(1,1-dimethylpiperidin-1-ium-4-carbonyl)piperazine-1-carbonyl]phenyl]-5-[4-[1-[2-[0,1-dimethylpiperidin-1-ium-3-yl)amino]-2-oxo-ethyl]-3-methyl-pyrazol-4-yl]-2,3-difluoro-phenyl]-1-methyl-imidazole-2-carboxamide; diformate], the concentration for an effect of 90% (IC90) in experiment [1] stood at 508 nM. Besides, the MIC in experiment [2] (setting [3]) stood at 3.85 µM.

For `COc1ccc(-c2[nH]ncc2-c2ccc(-c3cnc(C(=O)Nc4ccc(C(=O)N5CCN(C(=O)C6CC[N+](C)(C)CC6)CC5)c(Cl)c4)n3C)c(F)c2F)cc1` [Example I2, N-[3-chloro-4-[4-(1,1-dimethylpiperidin-1-ium-4-carbonyl)piperazine-1-carbonyl]phenyl]-5-[2,3-difluoro-4-[5-(4-methoxyphenyl)-1H-pyrazol-4-yl]phenyl]-1-methyl-imidazole-2-carboxamide; formate], the IC90 in experiment [1] (setting [4]) was found to be 608 nM. Besides, in experiment [2] (setting [5]), the MIC was found to be 2.41 µM.

On to `COc1cccc(-c2[nH]ncc2-c2ccc(-c3cnc(C(=O)Nc4ccc(C(=O)N5CCN(C(=O)C6CC[N+](C)(C)CC6)CC5)c(Cl)c4)n3C)c(F)c2F)c1` [Example I3, N-[3-chloro-4-[4-(1,1-dimethylpiperidin-1-ium-4-carbonyl)piperazine-1-carbonyl]phenyl]-5-[2,3-difluoro-4-[5-(3-methoxyphenyl)-1H-pyrazol-4-yl]phenyl]-1-methyl-imidazole-2-carboxamide; formate], for which the IC90 in experiment [1] (setting [4]) was found to be 398 nM. In experiment [2] (setting [5]), the MIC was 1.81 µM.
